Laboratory results published in patent US9328099B2, “Cyanomethylpyrazole carboxamides as janus kinase inhibitors” (Merck Sharp & Dohme Corp., priority 2011, dated 2016).

Key:
JAK2 = JAK2 (Homo sapiens (Human), UniProt O60674); assay: Jak Biochemical HTRF Assay, JAK2; details: HTRF biochemical assay, GST-tagged catalytic domain; top concentration tested […]
Excerpt: (§1) Jak Biochemical HTRF Assay Protocol
(§2) Subsequent reagent additions employed an Agilent Bravo.

JAK1 = JAK1 (Homo sapiens (Human), UniProt P23458); assay: Jak Biochemical HTRF Assay, JAK1; details: HTRF biochemical assay, GST-tagged catalytic domain; top concentration tested […]; read-out: JAK1 IC50
Excerpt: as §1, §2

Chain of JAK1 (P23458 875-1153): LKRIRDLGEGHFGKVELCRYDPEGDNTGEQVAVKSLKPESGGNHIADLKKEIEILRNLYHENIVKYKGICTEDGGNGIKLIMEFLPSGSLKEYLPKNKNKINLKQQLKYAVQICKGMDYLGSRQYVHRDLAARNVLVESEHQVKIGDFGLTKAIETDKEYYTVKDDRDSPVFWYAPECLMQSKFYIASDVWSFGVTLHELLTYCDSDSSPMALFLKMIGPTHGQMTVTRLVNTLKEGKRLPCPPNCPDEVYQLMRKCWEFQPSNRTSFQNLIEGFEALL
Chain of JAK2 (O60674 849-1124): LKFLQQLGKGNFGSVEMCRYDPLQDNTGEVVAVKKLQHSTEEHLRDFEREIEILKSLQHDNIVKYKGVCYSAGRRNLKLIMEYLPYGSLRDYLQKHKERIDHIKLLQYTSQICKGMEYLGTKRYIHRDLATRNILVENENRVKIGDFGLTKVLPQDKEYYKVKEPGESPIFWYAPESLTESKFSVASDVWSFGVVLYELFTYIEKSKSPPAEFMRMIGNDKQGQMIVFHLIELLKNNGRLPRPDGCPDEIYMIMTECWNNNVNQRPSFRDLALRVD

| Structure (SMILES) | IC50 (JAK2) [nM] | IC50 (JAK1) [nM] |
| --- | --- | --- |
| N#CCC1(n2cc(C(N)=O)c(Nc3ccnc(F)c3)n2)CCN(C(=O)CC2CCCO2)CC1 (stereo not drawn) [Example 34-39, 1-[4-(cyanomethyl)-1-(tetrahydrofuran-2-ylacetyl)piperidin-4-yl]-3-[(2-fluoropyridin-4-yl)amino]-1H-pyrazole-4-carboxamide] | 42 | 0.9 |
| CC(F)(F)C(=O)N1CCC(CC#N)(n2cc(C(N)=O)c(Nc3ccnc(F)c3)n2)CC1 [Example 34-40, 1-[4-(cyanomethyl)-1-(2,2-difluoropropanoyl)piperidin-4-yl]-3 [(2-fluoropyridin-4-yl)amino]-1H-pyrazole-4-carboxamide] | 2 | 0.1 |
| CC(CF)(CF)C(=O)N1CCC(CC#N)(n2cc(C(N)=O)c(Nc3ccnc(F)c3)n2)CC1 [Example 34-41, 1-{4-(cyanomethyl)-1-[3-fluoro-2-(fluoromethyl)-2-methylpropanoyl]piperidin-4-yl}-3-[(2-fluoropyridin-4-yl)amino]-1H-pyrazole-4-carboxamide] | 48 | 3 |
| COCC(=O)N1CCC(CC#N)(n2cc(C(N)=O)c(Nc3ccnc(F)c3)n2)CC1 [Example 34-42, 1-[4-(cyanomethyl)-1-(methoxyacetyl)piperidin-4-yl]-3-[(2-fluoropyridin-4-yl)amino]-1H-pyrazole-4-carboxamide] | 96 | 3 |
| CC(C)(O)C(=O)N1CCC(CC#N)(n2cc(C(N)=O)c(Nc3ccnc(F)c3)n2)CC1 [Example 34-43, 1-[4-(cyanomethyl)-1-(2-hydroxy-2-methylpropanoyl)piperidin-4-yl]-3-[(2-fluoropyridin-4-yl)amino]-1H-pyrazole-4-carboxamide] | 234 | 11 |
| Cn1cc(C(=O)N2CCC(CC#N)(n3cc(C(N)=O)c(Nc4ccnc(F)c4)n3)CC2)cn1 [Example 34-44, 1-{4-(cyanomethyl)-1-[(1-methyl-1H-pyrazol-4-yl)carbonyl]piperidin-4-yl}-3-[(2-fluoropyridin-4-yl)amino]-1H-pyrazole-4-carboxamide] | 63 | 2 |
| N#CCC1(n2cc(C(N)=O)c(Nc3ccnc(F)c3)n2)CCN(C(=O)CC2CC2)CC1 [Example 34-45, 1-[4-(cyanomethyl)-1-(cyclopropylacetyl)piperidin-4-yl]-3-[(2-fluoropyridin-4-yl)amino]-1H-pyrazole-4-carboxamide] | 46 | 1 |
| CC(C)[C@@H](O)C(=O)N1CCC(CC#N)(n2cc(C(N)=O)c(Nc3ccnc(F)c3)n2)CC1 [Example 34-46, 1-{4-(cyanomethyl)-1-[(2R)-2-hydroxy-3-methylbutanoyl]piperidin-4-yl}-3-[(2-fluoropyridin-4-yl)amino]-1H-pyrazole-4-carboxamide] | 139 | 2 |
| CC(C)[C@H](O)C(=O)N1CCC(CC#N)(n2cc(C(N)=O)c(Nc3ccnc(F)c3)n2)CC1 [Example 34-47, 1-{4-(cyanomethyl)-1-[(2S)-2-hydroxy-3-methylbutanoyl]piperidin-4-yl}-3-[(2-fluoropyridin-4-yl)amino]-1H-pyrazole-4-carboxamide] | 79 | 2 |
| CC(C(=O)N1CCC(CC#N)(n2cc(C(N)=O)c(Nc3ccnc(F)c3)n2)CC1)C(F)(F)F (stereo not drawn) [Example 34-48, 1-[4-(cyanomethyl)-1-(3,3,3-trifluoro-2-methylpropanoyl)piperidin-4-yl]-3-[(2-fIuoropyridin-4-yl)amino]-1H-pyrazole-4-carboxamide] | 13 | 0.3 |
| N#CCC(=O)N1CCC(CC#N)(n2cc(C(N)=O)c(Nc3ccnc(F)c3)n2)CC1 [Example 34-49, 1-[1-(cyanoacetyl)-4-(cyanomethyl)piperidin-4-yl]-3-[(2-fIuoropyridin-4-yl)amino]-1H-pyrazole-4-carboxamide] | 9 | 0.2 |
| CC(C)(O)CC(=O)N1CCC(CC#N)(n2cc(C(N)=O)c(Nc3ccnc(F)c3)n2)CC1 [Example 34-50, 1-[4-(cyanomethyl)-1-(3-hydroxy-3-methylbutanoyl)piperidin-4-yl]-3-[(2-fluoropyridin-4-yl)amino]-1H pyrazole-4-carboxamide] | 8 | 0.2 |
| N#CCC1(n2cc(C(N)=O)c(Nc3ccnc(F)c3)n2)CCN(C(=O)C2(C(F)(F)F)CCC2)CC1 [Example 34-51, 1-[4-(cyanomethyl)-1-{[1-(trifluoromethyl)cyclobutyl]carbonyl}piperidin-4-yl]-3-[(2-fluoropyridin-4-yl)amino]-1H-pyrazole-4-carboxamide] | 37 | 4 |
| N#CCC1(n2cc(C(N)=O)c(Nc3ccnc(F)c3)n2)CCN(C(=O)Cn2ccnc2)CC1 [Example 34-52, 1-[4-(cyanomethyl)-1-(1H-imidazol-1-ylacetyl)piperidin-4-yl]-3-[(2-fluoropyridin-4-yl)amino]-1H-pyrazole-4-carboxamide] | 154 | 4 |
| N#CCC1(n2cc(C(N)=O)c(Nc3ccnc(F)c3)n2)CCN(C(=O)C2CC(F)(F)C2)CC1 [Example 34-53, 1-{4-(cyanomethyl)-1-[(3,3-difluorocyclobutyl)carbonyl]piperidin-4-yl}-3-[(2-fluoropyridin-4-yl)amino]-1H-pyrazole-4-carboxamide] | 15 | 0.3 |
| CC(C)(C)CC(=O)N1CCC(CC#N)(n2cc(C(N)=O)c(Nc3ccnc(F)c3)n2)CC1 [Example 34-54, 1-[4-(cyanomethyl)-1-(3,3-dimethylbutanoyl)piperidin-4-yl]-3-[(2-fluoropyridin-4-yl)amino]-1H-pyrazole-4-carboxamide] | 44 | 0.6 |
| CC(C)(C(=O)N1CCC(CC#N)(n2cc(C(N)=O)c(Nc3ccnc(F)c3)n2)CC1)C(F)(F)F [Example 34-55, 1-[4-(cyanomethyl)-1-(3,3,3-trifluoro-2,2-dimethylpropanoyl)piperidin-4-yl]-3-[(2-fluoropyridin-4-yl)amino]-1H-pyrazole-4-carboxamide] | 28 | 1 |
| N#CCC1(n2cc(C(N)=O)c(Nc3ccnc(F)c3)n2)CCN(C(=O)C2(C(F)(F)F)CC2)CC1 [Example 34-56, 1-[4-(cyanomethyl)-1-{[1-(trifluoromethyl)cyclopropyl]carbonyl}piperidin-4-yl]-3-[(2-fluoropyridin-4-yl)amino]-1H-pyrazole-4-carboxamide] | 40 | 2 |
| N#CCC1(n2cc(C(N)=O)c(Nc3ccnc(F)c3)n2)CCN(C(=O)CCC(F)(F)F)CC1 [Example 34-57, 1-[4-(cyanomethyl)-1-(4,4,4-trifluorobutanoyl)piperidin-4-yl]-3-[(2-fluoropyridin-4-yl)amino]-1H-pyrazole-4-carboxamide] | 9 | 0.1 |
| CS(=O)(=O)CC(=O)N1CCC(CC#N)(n2cc(C(N)=O)c(Nc3ccnc(F)c3)n2)CC1 [Example 34-58, 1-{4-(cyanomethyl)-1-[(methylsulfonyl)acetyl]piperidin-4-yl}-3-[(2-fluoropyridin-4-yl)amino]-1H-pyrazole-4-carboxamide] | 22 | 0.5 |
| CCC(F)(F)C(=O)N1CCC(CC#N)(n2cc(C(N)=O)c(Nc3ccnc(F)c3)n2)CC1 [Example 34-59, 1-[4-(cyanomethyl)-1-(2,2-difluorobutanoyl)piperidin-4-yl]-3-[(2-fluoropyridin-4-yl)amino]-1H-pyrazole-4-carboxamide] | 3 | 0.2 |
